Laboratory results from patent US5536723A, “S-nitroso derivatives of hydrazinoacetic acids, 1-[(acylthio and (mercapto)-1-oxoalkyl]-1,2,34-Tetrahydroquinoline-2-carboxylic acids and alanyl prolines and isoquinolines” (Brigham & Women's Hospital, priority 1994, dated 1996).
Entries after “also recorded” stand apart in the source; their conditions may differ. Read-outs that look alike come from different tables or passages of the source.

Columns and labels:
bovine femoral artery = test: relaxation of isolated bovine femoral artery rings contracted with norepinephrine; settings: for IC50: Bos taurus
Description: FIG. 2 depicts a graph showing the effect of S-nitrosocaptopril on the contraction of bovine femoral arteries to norepinephrine.
(§1) Blood Vessel Preparation. Bovine coronary or femoral arteries were obtained from an abattoir immediately after sacrifice of two- to four-week-old calves. Immediately after removal, the vessel was placed in ice-cold physiologic salt solution (PSS) containing 118.3 mM NaCl, 4.7 mM KCl, 2.5 mM CaCl2, 1.2 mM MgSO4, 1.2 mM KH2 PO4, 25.0 mM NaHCO3, 11.1 mM glucose, and 0.026 mM calcium disodium (ethylenedinitrilo)-tetraacetate. The vessels were then cleaned of adventitial tissue and cut into rings of approximately 5 mm lengths. When called for by the protocol, endothelium was removed from a ring by gently rubbing the luminal surface with a watchmaker's forceps. Vascular rings with intact endothelium were then suspended in organ chambers containing 25 ml of PSS at 37° aerated with 95% O2 -5% CO2. The rings were connected to force transducers (Grass FT03C, Quincy, Mass.) and changes in isometric force recorded continuously (Grass Polygraph Model 79B) over a period of 90 minutes. The optimal length-tension relationship was determined for each ring by observing the response to 10^-6 M norepinephrine after increments in tension of 0.5 gm. The functional integrity of the endothelium was assessed by contracting the vessel with 10^-6 M norepinephrine and then observing the response to 3×10^-7 M acetylcholine chloride.
Vascular ring segments with intact endothelium were […] contracted with a concentration of norepinephrine inducing a half-maximal response. After a stable contraction had been achieved, the tissue was exposed to increasing concentrations of S-nitrosocaptopril in cumulative half-log increments. […] The apparent IC50 is approximately 1 μM.

[1] = arterial pressure in the anesthetized rabbit; type: in vivo; settings: 1 mM solution infused in an ear vein, 0.02 to 2.2 ml/min
Description: A 1 mM solution of S-nitrosocaptopril was infused in an ear vein of the rabbit at rates from 0.02 to 2.2 ml/min and the phasic and mean arterial pressure recorded in the femoral artery.

ACE = target: T1, ACE (Rattus norvegicus, UniProt P47820); test: ACE inhibition, rat lung source of ACE; type: biochemical; settings: 10^-10 to 10^-8
T1 sequence (P47820 36-1313): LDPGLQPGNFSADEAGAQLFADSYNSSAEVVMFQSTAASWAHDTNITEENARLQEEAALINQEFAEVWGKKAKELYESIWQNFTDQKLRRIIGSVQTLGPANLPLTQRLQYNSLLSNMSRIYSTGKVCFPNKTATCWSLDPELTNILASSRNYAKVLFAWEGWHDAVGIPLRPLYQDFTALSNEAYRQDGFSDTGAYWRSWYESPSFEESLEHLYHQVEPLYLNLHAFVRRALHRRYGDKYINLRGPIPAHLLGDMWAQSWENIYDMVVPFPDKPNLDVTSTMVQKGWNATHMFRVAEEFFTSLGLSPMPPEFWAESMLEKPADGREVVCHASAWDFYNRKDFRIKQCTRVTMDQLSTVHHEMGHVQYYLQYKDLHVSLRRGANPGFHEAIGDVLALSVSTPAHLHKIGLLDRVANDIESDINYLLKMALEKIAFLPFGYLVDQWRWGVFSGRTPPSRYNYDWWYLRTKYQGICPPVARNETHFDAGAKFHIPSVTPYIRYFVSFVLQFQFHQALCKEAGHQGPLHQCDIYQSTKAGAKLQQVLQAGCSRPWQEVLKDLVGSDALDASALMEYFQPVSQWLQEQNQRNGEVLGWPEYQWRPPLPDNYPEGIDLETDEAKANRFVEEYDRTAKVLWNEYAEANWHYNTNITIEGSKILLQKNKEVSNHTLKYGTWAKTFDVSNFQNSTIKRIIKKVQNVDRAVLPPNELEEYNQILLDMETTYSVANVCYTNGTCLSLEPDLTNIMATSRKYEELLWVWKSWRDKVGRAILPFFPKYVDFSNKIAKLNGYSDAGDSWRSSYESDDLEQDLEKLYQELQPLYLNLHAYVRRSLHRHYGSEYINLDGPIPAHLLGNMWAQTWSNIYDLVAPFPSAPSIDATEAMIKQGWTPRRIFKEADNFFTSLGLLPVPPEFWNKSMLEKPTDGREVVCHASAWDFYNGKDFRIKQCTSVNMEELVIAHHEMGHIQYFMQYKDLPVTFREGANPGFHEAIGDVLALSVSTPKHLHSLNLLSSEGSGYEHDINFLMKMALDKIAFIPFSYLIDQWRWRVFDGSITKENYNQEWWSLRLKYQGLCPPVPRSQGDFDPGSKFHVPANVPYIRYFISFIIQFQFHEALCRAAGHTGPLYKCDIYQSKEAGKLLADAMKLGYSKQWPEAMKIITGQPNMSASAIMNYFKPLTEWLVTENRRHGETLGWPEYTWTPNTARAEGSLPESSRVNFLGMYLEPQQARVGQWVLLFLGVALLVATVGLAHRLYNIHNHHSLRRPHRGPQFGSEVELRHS
Description: Under the conditions of this assay (0.1M potassium phosphate, pH 8.3, 0.3M NaCl at 37°), ACE preparations generated 6.32 nmoles of product/mg protein/min.

[2] = decay of the S-nitroso bond in plasma (PPP); type: in vitro ADME; settings: room temperature
Description: The half-life of the S-nitroso bond of S-nitrosocaptopril in physiologic buffer and in plasma was determined by incubating purified S-nitrosocaptopril in aerated PSS or in PPP, the results of which are shown in FIG. 1.

[3] = tested on: cGMP (and cAMP) in platelets; test: cGMP (and cAMP) levels in platelets; type: cell-based; settings: 10^-5 M, one minute
Description: Since the postulated mechanism by which the nitrosothiol moiety of S-nitrosocaptopril directly relaxes vascular smooth muscle and attenuates the platelet aggregation response is believed to be through activation of soluble guanylate cyclase, cGMP (and cAMP) levels were measured in vessel ring segments and in platelets incubated with 10^-5 M S-nitrosocaptopril.

[4] = tested on: bovine femoral artery, contraction to angiotensin I; test: contraction of the bovine femoral artery to angiotensin I
Description: The data are expressed as a percentage of the maximal response to norepinephrine (10^-6 M) and are shown as mean ±SEM in each group (n=7).
as §1

[5] = tested on: bovine femoral artery, response to bradykinin; test: response of the bovine femoral artery to bradykinin; settings: 10^-6 M
Description: as §1
In the bovine femoral artery contracted with a concentration of norepinephrine inducing a half-maximal response, bradykinin induced a biphasic response.

[6] = tested on: bovine femoral artery, contraction to angiotensin II; test: contraction of the bovine femoral artery to angiotensin II
Description: The data are expressed as a percentage of the maximal response to norepinephrine (10^-4 M) and are shown as mean ±SEM in each group (n=6).
as §1

C[C@H](CSN=O)C(=O)N1CCC[C@H]1C(=O)O [S-nitrosocaptopril]
IC50 (bovine femoral artery; compared with coronary artery, p<0.05, n=6, read-out: IC50 (relaxation, femoral artery)): 5.6 µM
IC50 (bovine femoral artery; norepinephrine-contracted, intact endothelium, FIG. 2, read-out: apparent IC50 (relaxation)): ~1 µM
potency of vasodilation relative to S-nitroso-N-acetylpenicillamine (literature value in the bovine coronary artery) (bovine femoral artery; compared with Ignarro et al.): approximately one order of magnitude weaker
relaxation response (in words) (bovine femoral artery; norepinephrine-contracted, FIG. 2): induced dose-dependant relaxation; also recorded: progressive relaxation was observed
effect on blood pressure (in words) [1]: clear decrease in blood pressure
ACE inhibition (in words, FIG. 6) (ACE): almost complete inhibition of ACE
estimated half-life of the S-nitroso bond [2]: ~2.5 h
cAMP levels, platelets (in words) [3]: did not change from basal levels
cGMP level, platelets [3]: 5.44 pmoles/10^8 platelets
fold induction at 10 µM ([3]; Platelet, 1 min, read-out: increase of cGMP levels, platelets): 11.3
inhibition of contractions to angiotensin I, S-nitrosocaptopril versus captopril (in words) [4]: equally inhibited contractions to angiotensin I
shift in the response to angiotensin I (rounded, discussion) [4]: 50 fold
log shift at the ED50 in the response to angiotensin I ([4]; 10^-6 M, n=6, p<0.001, FIG. 9): 1.74±0.25 log
shift at the ED50 in the response to angiotensin I ([4]; 10^-6 M, n=6, p<0.001, FIG. 9): 56 fold
effect on the response to bradykinin (in words) [5]: Neither response to bradykinin was affected
shift rightward in the dose response curve to angiotensin II [6]: 5 fold
responses to angiotensin II in the presence of S-nitrosocaptopril (in words) ([6]; 10^-6 M, FIG. 10): significantly less than control
